Data from patent US8431527B2, “Methods for alleviating deleterious effects of 3-deoxyglucosone” (Fox Chase Cancer Center, priority 1997, dated 2013).
One block for each compound: values may come before it.

Experiments:
[1] = Locus of 3-O-methyl sorbitollysine uptake in vivo (tissue, urine, plasma recovery); design: species or system rats
Description: Six rats were injected intraperitoneally with […] (4.4 mg) of 3-O-methyl sorbitollysine. The rats' urine was collected for 3 hours, after which the rats were sacrificed. The tissues to be analyzed were removed and freeze clamped in liquid nitrogen. Perchloric acid extracts of the tissues were used for metabolite analysis. The tissues examined were taken from the brain, heart, muscle, sciatic nerve, spleen, pancreas, liver and kidney. Plasma and urine were also analyzed.

[2] = system: 3DG; experiment: 3-O-methyl sorbitollysine lowers plasma 3DG in diabetic and non-diabetic rats; format: in vivo; conditions: Day 8
Description: A cohort of twelve diabetic rats was divided into two groups of six. The first group received saline-only injections, and the second received injections of 3-O-methyl sorbitollysine in saline solution. The same procedure was conducted on a cohort of twelve non-diabetic rats.

[3] = Stability of FL3P in aqueous solution; format: physicochemical; conditions: degrades to 3DG, lysine and inorganic phosphate
Excerpt: FL3P is not stable in aqueous solution. It rapidly degrades to form 3DG, lysine and inorganic phosphate. This reaction also occurs in vivo. It is not currently know if the degradation of FL3P in vivo is a spontaneous or enzyme catalyzed reaction. It is strongly suspected, however, that enzymatic catalysis is involved, as the production of 3DG from fructose lysine occurs very rapidly in intact kidney.

[4] = system: lysine recovery pathway; experiment: Urinary FL, 3DG and 3DF in humans following ingestion of glycated protein; format: in vivo; conditions: seven volunteers, 2 g dose of fructoselysine as glycated protein food
Description: c. Experimental protocol: Volunteers spent two days on a fructoselysine-free diet and then consumed 22.5 g of the food product prepared as described herein, thus effectively receiving a 2 g. dose of fructoselysine. Urine was collected at 2 hour intervals for 14 hours and a final collection was made at 24 hours. d. Measurement of FL, 3DG and 3DF in urine: FL was measured by HPLC with a Waters 996 diode Array using a Waters C18 Free Amino Acid column at 46° and a gradient elution system of acetonitrile-methyl alcohol-water (45:15:40) into acetonitrile-sodium acetate-water (6:2:92) at 1 ml./min. Quantitation employed an internal standard of meglumine. 3DF was measured by HPLC after deionization of the sample. Analyses were performed on a Dionex DX-500 HPLC system employing a PA1 column (Dionex) and eluting with 32 mM sodium hydroxide at 1 ml./min. Quantitation was performed from standard curves obtained daily with synthetic 3DF. 3DG was measured by GC-MS after deionization of the sample. 3DG was derivatized with a 10-fold excess of diaminonaphthalene in PBS. Ethyl acetate extraction gave a salt free fraction which was converted to the trimethyl silyl ethers with Tri-Sil (Pierce). Analysis was performed on a Hewlett-Packard 5890 selected ion monitoring GC-MS system. […] Quantitation of 3DG employed selected ion monitoring using an internal standard of U-13C-3DG.

[5] = system: kidney proteins; design: species or system rats; conditions: rat, in vivo
Description: Two rats were injected daily with 5 μmols. of either FL or mannitol (used as a control) for 5 days. The animals were sacrificed and the kidneys removed and dissected into the cortex and medulla. Tissues were homogenized in 5 volumes of 50 mM Tris.HCl containing 150 mM KCl, 15 mM MgCl2 and 5 mM DTT, pH 7.5. Cellular debris was removed by centrifugation at 10,000 g for 15 minutes, and the supernate was then centrifuged at 150,000 g for 70 minutes. The soluble proteins were analyzed by SDS PAGE on 12% polyacrylamide gels as well as on 4-15 and 10-20% gradient gels.

[6] = system: FL3P; experiment: Kidney FL3P after injection of synthetic fructose-lysine; format: in vivo; conditions: non-diabetic rats
Description: This identification was confirmed in two ways. Authentic fructose-lysine-3-phosphate (FL3P) was synthesized by the procedure disclosed in Example 2, below, and shown to co-resonate in the ^31P NMR spectrum with the peak in diabetic rat kidneys. Synthetic fructose-lysine was also injected into non-diabetic rats.

[7] = system: 3-deoxyglucosone; experiment: Reduction of urinary and plasma 3-deoxyglucosone after intraperitoneal injection; format: in vivo; conditions: rats, 10 μmols intraperitoneal
Description: Urine was collected from six rats for three hours. A plasma sample was also obtained. The animals were then given 10 μmols of either sorbitollysine, mannitollysine, or galactitollysine by intraperitoneal injection. Urine was collected for another three hours, and a plasma sample obtained at the end of the three hours.
3-deoxyglucosone was measured in these samples, as described in Example 5, below, and variable volumes were normalized to creatinine. The average reduction of urinary 3-deoxyglucosone was 50% by sorbitollysine, 35% by mannitollysine and 35% by galactitollysine. Plasma 3-deoxyglucosone was reduced 40% by sorbitollysine, 58% by mannitolysine and 50% by galactitollysine.
c. Use of meglumine to reduce urinary 3-deoxyglucosone. Three rats were treated as in b), immediately above, except meglumine (100 μmols) was injected intraperitoneally instead of the above-mentioned lysine derivatives. Three hours after the injection the average 3-deoxyglucosone concentrations in the urine were decreased 42%.
3DG was measured by GC-MS after deionization of the sample. 3DG was derivatized with a 10-fold excess of diaminonaphthalene in PBS. Ethyl acetate extraction gave a salt free fraction which was converted to the trimethyl silyl ethers with Tri-Sil (Pierce). […] Quantitation of 3DG employed selected ion monitoring using an internal standard of U-13C-3DG.

[8] = 3 hours after intraperitoneal injection

compound present in plasma [1, 8]: plasma did not
Compound: COC(C(O)CNCCCCC(N)C(=O)O)C(O)C(O)CO (centres unmarked) [3-O-methyl Sorbitollysine, 3-O-methyl sorbitollysine]
tissue extracts containing compound (brain, heart, muscle, sciatic nerve, spleen, pancreas, liver, kidney) [1, 8]: only tissue extract found to contain 3-O-methyl sorbitollysine was that of the kidney | compound present in urine ([1]; urine collected for 3 hours): urine also contained 3-O-methyl sorbitollysine | percent reduction of plasma 3DG vs saline control ([2]; diabetic rats): 53% | percent reduction of plasma 3DG vs saline control ([2]; non-diabetic rats): 43%

Compound: NC(CCCCNCC(=O)C(OP(=O)(O)O)C(O)C(O)CO)C(=O)O (centres unmarked) [FL3P, fructose-lysine-3-phosphate]
stability in aqueous solution [3]: not stable

Compound: NC(CCCCNCC(=O)C(O)C(O)C(O)CO)C(=O)O (centres unmarked) [FL, 1-deoxy-1-(ε-aminolysine)-fructose]
time of peak urinary 3DF excretion after the FL bolus [4]: about 4 hours | SDS PAGE of soluble kidney proteins vs mannitol-injected animal [5]: lower molecular weight bands were missing or visually reduced | levels of FL3P in kidneys following injection [6]: substantial increase

Compound: galactitol lysine [galactitollysine]
plasma 3-deoxyglucosone reduced ([7]; plasma at end of three hours): 50% | average reduction of urinary 3-deoxyglucosone ([7]; urine collected three hours after vs before, normalized to creatinine): 35%
